Data from PMC6858373 (Scientific Reports, 2019).
Like-named read-outs stand apart in the source and are kept apart here.

Tests used:
[1] = target: full-length P. pyralis luciferase (Photinus pyralis, UniProt P08659, K549A/L550V/N119G/N50D/S548I); type: cell-based; conditions: CC_NCI screening, normalized to on-plate 0.3% DMSO controls; for Luciferase Assay % Lum: full-length luciferase counter-screen luminescence; for Luciferase Assay Z-score: full-length luciferase counter-screen
[2] = target: T1, FGF14:Nav1.6 C-tail complex (Homo sapiens, UniProt Q92915+Q9UQD0); assay: Split-luciferase complementation assay (LCA) in Clone V double stable HEK293 cells; type: cell-based; conditions: for Split Luciferase Assay % Lum Set 1 / Split Luciferase Assay Z-score Set 1: biological replicate Set 1; for Split Luciferase Assay % Lum Set 1 / Split Luciferase Assay %Lum Set 2: normalized to on-plate 0.3% DMSO controls (n=16 per plate); for Split Luciferase Assay %Lum Set 2 / Split Luciferase Assay Z-score Set 2: biological replicate Set 2; for Split Luciferase Assay Z-score Set 1 / Split Luciferase Assay Z-score Set 2: normalized to on-plate 0.3% DMSO controls; for Split Luciferase Assay %Lum Avg: average of Set 1 and Set 2, normalized to 0.3% DMSO controls
T1 construct: polymerase chain reaction (PCR) amplification of the FGF14 open reading frame (nt 1–855); C-terminal fragment of Nav1.6 (amino acids 1763–1976) fused with CD4ΔC-tail (amino acids 1–395); expressed in transfected cells

[3] = CC_NCI screening, LCA luminescence

Sequence of full-length P. pyralis luciferase (P08659 whole entry N50D/N119G/S548I/K549A/L550V, looked up): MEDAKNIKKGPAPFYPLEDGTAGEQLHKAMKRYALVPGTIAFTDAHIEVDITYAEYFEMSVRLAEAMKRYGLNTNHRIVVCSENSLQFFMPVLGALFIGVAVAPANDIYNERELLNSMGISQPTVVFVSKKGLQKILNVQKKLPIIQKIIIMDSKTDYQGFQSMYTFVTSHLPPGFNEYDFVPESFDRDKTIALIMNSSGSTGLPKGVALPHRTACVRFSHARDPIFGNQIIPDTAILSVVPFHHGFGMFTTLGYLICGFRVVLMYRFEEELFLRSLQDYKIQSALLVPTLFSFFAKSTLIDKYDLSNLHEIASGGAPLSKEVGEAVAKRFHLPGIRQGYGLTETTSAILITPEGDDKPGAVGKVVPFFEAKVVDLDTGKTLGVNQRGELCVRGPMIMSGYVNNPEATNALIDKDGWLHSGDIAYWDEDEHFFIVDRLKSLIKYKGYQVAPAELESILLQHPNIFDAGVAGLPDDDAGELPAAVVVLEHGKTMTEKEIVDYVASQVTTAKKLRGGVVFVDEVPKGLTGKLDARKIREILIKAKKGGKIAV
T1 sequence (Q92915 1-252 isoform Q92915-2): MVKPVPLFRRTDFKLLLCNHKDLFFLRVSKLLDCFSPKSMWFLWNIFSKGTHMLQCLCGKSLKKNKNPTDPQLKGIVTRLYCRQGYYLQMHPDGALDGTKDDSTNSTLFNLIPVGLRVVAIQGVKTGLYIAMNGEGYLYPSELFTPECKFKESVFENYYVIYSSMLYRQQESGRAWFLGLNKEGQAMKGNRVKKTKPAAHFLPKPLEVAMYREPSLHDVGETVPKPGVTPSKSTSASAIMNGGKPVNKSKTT
T1 sequence (Q9UQD0 1763-1976 limits assumed): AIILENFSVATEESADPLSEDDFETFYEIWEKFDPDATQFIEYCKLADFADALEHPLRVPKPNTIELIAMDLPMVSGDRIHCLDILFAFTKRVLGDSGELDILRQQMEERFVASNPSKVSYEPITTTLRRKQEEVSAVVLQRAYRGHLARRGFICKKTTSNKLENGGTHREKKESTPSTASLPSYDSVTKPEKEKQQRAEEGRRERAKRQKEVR

Compound	Luciferase Assay % Lum [1] [%]	Luciferase Assay Z-score [1]	Toxicity Assay % Fluor (Clone V cells; human, 16 h, 30 µM) [%]	Toxicity Assay Z-score (Clone V cells; human, 16 h, 30 µM)	Split Luciferase Assay % Lum Set 1 [2, 3] [%]	Split Luciferase Assay %Lum Set 2 [2, 3] [%]	Split Luciferase Assay Z-score Set 1 ([2]; CC_NCI screening, LCA)	Split Luciferase Assay Z-score Set 2 ([2]; CC_NCI screening, LCA)	Split Luciferase Assay %Lum Avg ([2]; CC_NCI screening) [%]	Toxicity Assay % Fluor (Clone V cells) [%]	Toxicity Assay Z-score (Clone V cells)	Luciferase Assay % Lum (full-length luciferase counter-screen) [1] [%]	Luciferase Assay Z-score (full-length luciferase counter-screen) [1]	Toxicity Assay % Fluor (CTB cell viability fluorescence) (Clone V cells) [%]	Toxicity Assay Z-score (CTB cell viability) (Clone V cells)	Split Luciferase Assay Z-score Set 1 ([2]; CC_NCI screening)	Split Luciferase Assay % Lum Set 1 ([2]; CC_NCI screening) [%]	Split Luciferase Assay Z-score Set 2 ([2]; CC_NCI screening)	Split Luciferase Assay %Lum Set 2 ([2]; CC_NCI screening) [%]	Split Luciferase Assay %Lum Avg [2] [%]
C=C(c1ccc(C(=O)O)cc1)c1cc2c(cc1C)C(C)(C)CCC2(C)C [BEXAROTENE]	99.04	-0.12	86.80	-1.85	129.69	99.87	2.40	-0.01	114.78	–	–	–	–	–	–	–	–	–	–	–
Nc1nc2nc[nH]c2c(=S)[nH]1 [Thioguanine]	92.95	-0.90	96.19	-0.53	93.82	110.27	-0.50	0.84	102.05	–	–	–	–	–	–	–	–	–	–	–
Cc1cccc(Nc2nc(-c3ccncc3)cs2)c1 [STF-62247]	83.43	-2.12	–	–	23.16	33.29	-6.21	-5.43	28.22	98.46	-0.22	–	–	–	–	–	–	–	–	–
COc1ccc(OC)c2c(=S)c3ccccc3[nH]c12 [NSC 625987]	–	–	–	–	–	–	–	–	–	–	–	78.37	-2.77	109.17	1.28	-1.20	85.12	-1.20	85.31	85.21
NC(=O)c1ccc2[nH]ccc2c1 [SD 169]	–	–	–	–	–	–	–	–	–	–	–	109.31	1.19	104.03	0.56	2.14	126.43	1.34	116.51	121.47
O=c1[nH]nc(Sc2ncc([N+](=O)[O-])s2)n1-c1ccc2c(c1)OCCO2 [JNK INHIBITOR X]	–	–	–	–	–	–	–	–	–	–	–	4.80	-12.19	82.79	-2.41	-7.97	1.41	-7.88	3.12	2.27
COc1cc([C@@H]2c3cc4c(cc3[C@@H](O[C@@H]3O[C@@H]5CO[C@@H](C)O[C@H]5[C@H](O)[C@H]3O)[C@H]3COC(=O)[C@H]23)OCO4)cc(OC)c1O [Etoposide]	103.75	0.48	88.49	-1.61	77.51	72.82	-1.82	-2.21	75.17	–	–	–	–	–	–	–	–	–	–	–
COc1ccc2c(c1)CC[C@@H]1[C@@H]2CC[C@]2(C)[C@@H](NCCCCCCN3C(=O)C=CC3=O)CC[C@@H]12 [U 73122]	109.98	1.28	–	–	128.60	129.00	2.31	2.36	128.80	102.60	0.36	–	–	–	–	–	–	–	–	–
LE 135	97.72	-0.29	–	–	44.90	74.90	-4.45	-2.04	59.90	98.37	-0.23	–	–	–	–	–	–	–	–	–
